Measurements from BigSolDB 2.1.

C[C@H](N)C(=O)O
solubility (mole fraction)
Details | 283.15 K | 293.15 K | 303.15 K | 313.15 K | 323.15 K
in acetone | 7.1e-05 | 0.000116 | 0.000138 | 0.000166 | 0.000202
in acetonitrile | 7.6e-05 | 0.000121 | 0.000157 | 0.000178 | 0.000209
in ethanol | 0.000193 | 0.000226 | 0.000244 | 0.000251 | 0.00027
in ethyl acetate | 7.8e-05 | 0.00014 | 0.00016 | 0.00018 | 0.000217
in isobutanol | 0.000294 | 0.000314 | 0.000332 | 0.000346 | 0.000361
in isopropanol | 8.2e-05 | 0.000144 | 0.000174 | 0.00019 | 0.000245
in methanol | 0.000407 | 0.000428 | 0.00049 | 0.000531 | 0.00062
in n-butanol | 0.000414 | 0.000449 | 0.000517 | 0.000611 | 0.000895
in n-pentanol | 0.000216 | 0.000253 | 0.00032 | 0.000382 | 0.000465
in n-propanol | 0.000122 | 0.000215 | 0.000261 | 0.000313 | 0.000452
in sec-butanol | 0.000297 | 0.000333 | 0.000407 | 0.000552 | 0.000734
in water | 0.0279 | 0.0308 | 0.0342 | 0.038 | 0.042
